Experimental data reported in patent publication US20210317092A1 (BAYER PHARMA AKTIENGESELLSCHAFT, priority 2016, published 2021).
pIC50: −log10 of the molar value. Read-outs that look alike come from different tables or passages of the source.

Columns and labels:
Format in all cases: cell-based
[1] = target: T1, native human Bradykinin B1 receptor (Homo sapiens, UniProt P46663); test: Calcium flux Assay (FLIPR) with human fibroblasts expressing Bradykinin B1 receptor (hB1 IMR-90); details: IMR-90 human fibroblasts expressing native Bradykinin B1 receptor
T1 construct: which express native human Bradykinin B1 receptor after induction with human IL-10; Coriell Institute; host or cells: IMR-90 human foetal lung fibroblasts, cytokine-induced
T1 sequence (P46663 1-353): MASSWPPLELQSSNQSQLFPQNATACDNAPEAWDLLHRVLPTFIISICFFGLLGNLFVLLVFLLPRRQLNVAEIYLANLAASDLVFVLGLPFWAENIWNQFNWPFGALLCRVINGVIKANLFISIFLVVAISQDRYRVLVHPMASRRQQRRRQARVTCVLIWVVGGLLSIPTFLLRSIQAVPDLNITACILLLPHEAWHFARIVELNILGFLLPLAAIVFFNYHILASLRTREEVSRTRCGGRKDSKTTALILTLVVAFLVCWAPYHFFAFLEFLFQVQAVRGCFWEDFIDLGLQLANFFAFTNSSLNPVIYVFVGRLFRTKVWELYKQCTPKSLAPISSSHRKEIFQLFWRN
Summary of the method: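 IMR-90 human foetal lung fibroblasts induced with 0.35 ng/mL […] for 3 h, Fluo-4/AM-loaded, preincubated with compound (8 concentrations, triplicate) for 30 min at 28 °C, then challenged with Lys-(Des-Arg)-bradykinin at EC90. Ca2+ fluorescence was read at 538 nm; full inhibition set by 20 µM Lys-(Des-Arg-Leu)-bradykinin; IC50 derived.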

[2] = target: T2, human Bradykinin B1 receptor (Homo sapiens, UniProt P46663); test: Calcium flux Assay (FLIPR) with recombinant CHO-K1 cells expressing human Bradykinin B1 receptor, in presence (hB1 IC50) or absence (hB1 free IC50) of 0.1% BSA
T2 construct: host or cells: CHO-K1
T2 sequence (P46663 1-353): T1 sequence (P46663 1-353)

[3] = system: IL-8 secretion; test: Inhibitory activity on Bradykinin B1 agonist-induced secretion of IL-8 in human IMR-90 cells; details: 30 min compound, stimulated with 0.1 μM Lys-[Des-Arg9]Bradykinin and 0.1 μM Sar-[D-Phe8]-des-Arg9-Bradykinin for 5 hours
Text: (§1) Inhibitory activity on Bradykinin B1 agonist-induced secretion of IL-6 and IL-8 in human IMR-90 cells
(§2) The effect of the compound examples on secretion of the cytokine IL-6 and IL-8 has been investigated in the human foetal lung fibroblast IMR-90 cell line. Here the induction of the cytokine secretion was induced by the Bradykinin B1 agonists Lys-[Des-Arg9]Bradykinin (CAS 71800-36-7, Tocris Bioscience) and Sar-[D-Phe8]-des-Arg9-Bradykinin (CAS 126959-88-4, Tocris Bioscience) leading to the activation of the Bradykinin B1-driven signalling pathway. This effect is indicative for a strong anti-inflammatory mode of action in kinin driven inflammation.
(§3) IMR-90 cells were cultured in Eagle's Minimum Essential Medium (EMEM) containing 2 mM L-glutamine, 1 g/L glucose, 1.5 g/L NaHCO3, 1 mM sodium pyruvate and non-essential amino acids (ATCC, 30-2003™) supplemented with 10% FBS (Biochrom, S0615) and 50 U/mL Penicillin, 50 μg/mL Streptomycin (PAA, P11-010). The assay was performed in EMEM and a cell density of […] IMR-90 cells/96-well. The compound examples have been serial diluted in 100% DMSO and evaluated at 8 different concentrations within the range of 3 nM and 10 μM and a final DMSO concentration of 0.4%. The IMR-90 cells have been incubated with the respective concentration of the compound for 30 min. The enhanced secretion of IL-6 and IL-8 was induced by the stimulation of these cells with 0.1 μM Lys-[Des-Arg9]Bradykinin (Tocris, catalogue no. 3225) and 0.1 μM Sar-[D-Phe8]-des-Arg9-Bradykinin (Tocris, catalogue no. 3230) for 5 hours at 37° C. and 5% C02. Further, cells have been treated with Lys-[Des-Arg9]Bradykinin and Sar-[D-Phe8]-des-Arg9-Bradykinin as neutral control and with 0.1% DMSO as inhibitor control. The amount of IL-6 and IL-8 in the supernatant was determined using the Human Prolnflammatory Panel II (4-Plex) (MSD, K15025B) according to manufacturer's instruction. Briefly, supernatants were added onto assay plates and incubated at room temperature for 1-2 h with vigorous shaking at 600 rpm. Detection antibodies were then added onto the supernatants and incubated at room temperature for an additional 1-2 h with vigorous shaking at 600 rpm. Plates were washed three times with phosphate-buffered saline (PBS; 137 mM NaCl, 2.7 mM KCl, 6.5 mM Na2HPO4, 1.7 mM KH2P04) containing 0.05% Tween-20 (Bio-Rad, 161-0781) and electrochemiluminescence detected using the MSD Sector Imager 6000 plate reader. The cell viability was measured using the CellTiter-Glo Luminescent Assay (Promega, G7571) following the manufacturers protocol. Briefly, the CellTiter-Glo Reagent was diluted with PBS (1:1) and added directly to cells. After incubation and shaking for 10 minutes luminescent signal was measured which is proportional to the amount of ATP present.
(§4) The effect of the compound on the amount of secreted cytokine has been calculated as 100/(measured cytokine concentration of neutral control-measured cytokine concentration of inhibitor control)*(measured cytokine concentration of compound dose-measured cytokine concentration of inhibitor control). IC50 values are determined using 4-parameter-fit.
(§5) The compound examples were tested in triplicates per plate and the inhibitory activity was determined as the relation between neutral and inhibitor control in percent. IC50 values were calculated using the 4-parameter logistic model.

[4] = system: IL-6 secretion; test: Inhibitory activity on Bradykinin B1 agonist-induced secretion of IL-6 in human IMR-90 cells; details: 30 min compound, stimulated with 0.1 μM Lys-[Des-Arg9]Bradykinin and 0.1 μM Sar-[D-Phe8]-des-Arg9-Bradykinin for 5 hours
Text: as §1, §2, §3, §4, §5

[5] = in absence of 0.1% BSA, read-out: hB1 free IC50
[6] = in presence of 0.1% BSA, read-out: hB1 IC50

| Molecule | pIC50 [1] | pIC50 [2, 5] | pIC50 [2, 6] | pIC50 [3] | pIC50 [4] |
| --- | --- | --- | --- | --- | --- |
| Cc1cc(-c2c(F)cc(NC(=O)C3(c4ccc(C(F)(F)F)cc4F)CC3)cc2-c2nnn[nH]2)ccn1 [Example 265, N-[3-fluoro-4-(2-methylpyridin-4-yl)-5-(1H-tetrazol-5-yl)phenyl]-1-[2-fluoro-4-(trifluoromethyl)phenyl]cyclopro-panecarboxamide] | 8.64 | 8.58 | – | – | – |
| Cc1ccc(-c2c(F)cc(NC(=O)C3(c4ccc(C(F)(F)F)cc4F)CC3)cc2-c2nnn[nH]2)cn1 [Example 266, N-[3-fluoro-4-(6-methylpyridin-3-yl)-5-(1H-tetrazol-5-yl)phenyl]-1-[2-fluoro-4-(trifluoromethyl)phenyl]cyclopro-panecarboxamide] | 8.62 | 8.46 | – | – | – |
| O=C(Nc1cc(F)c(-c2ccnc(C(F)(F)F)c2)c(-c2nnn[nH]2)c1)C1(c2ccc(C(F)(F)F)cc2F)CC1 [Example 267, N-{3-fluoro-5-(1H-tetrazol-5-yl)-4-[2-(trifluoromethyl)pyridin-4-yl]phenyl}-1-[2-fluoro-4-(trifluoromethyl)phenyl]cyclopro-panecarboxamide] | 7.32 | 7.72 | – | – | – |
| CC(F)(F)c1ccc(-c2ccc(NC(=O)C3(c4ccc(F)c(F)c4)CC3)cc2-c2nnn[nH]2)cn1 [Example 279, N-{4-[6-(1,1-difluoroethyl)py-ridin-3-yl]-3-(1H-tetrazol-5-yl)phenyl}-1-(3,4-difluorophenyl)cy-clopropanecar-boxamide] | 7.79 | 7.64 | – | – | – |
| CC(F)(F)c1ccc(-c2ccc(NC(=O)C3(c4ccc(C(F)(F)F)cc4F)CC3)cc2-c2nnn[nH]2)cn1 [Example 281, N-{4-[6-(1,1-difluoroethyl)py-ridin-3-yl]-3-(1H-tetrazol-5-yl)phenyl}-1-[2-fluoro-4-(trifluoromethyl)phenyl]cyclopro-panecarboxamide] | 8.21 | 8.22 | – | – | – |
| Cc1ccc(C2(C(=O)Nc3ccc(-c4ccc(C(F)(F)F)nc4)c(-c4nnn[nH]4)c3)CC2)c(F)c1 [Example 291, 1-(2-fluoro-4-methylphenyl)-N-{3-(1H-tetrazol-5-yl)-4-[6-(trifluoromethyl)pyridin-3-yl]phenyl}cyclopro-panecarboxa-mide] | 8.63 | 7.65 | – | – | – |
| COc1cc(C(F)(F)F)ccc1C1(C(=O)Nc2ccc(-c3ccc(C(F)(F)F)nc3)c(-c3nnn[nH]3)c2)CC1 [Example 293, 1-[2-methoxy-4-(trifluoromethyl)phenyl]-N-{3-(1H-tetrazol-5-yl)-4-[6-(trifluoromethyl)pyridin-3-yl]phenyl}cyclopro-panecarboxa-mide] | 6.58 | 6.53 | – | – | – |
| O=C(Nc1ccc(-c2ccc(C(F)(F)F)nc2)c(-c2nnn[nH]2)c1)C1(c2ccc(OC(F)(F)F)cc2F)CC1 [Example 294, 1-[2-fluoro-4-(trifluoromethoxy)phenyl]-N-{3-(1H-tetrazol-5-yl)-4-[6-(trifluoromethyl)pyridin-3-yl]phenyl}cyclopro-panecarboxa-mide] | 8.21 | 8.22 | – | – | – |
| O=C(Nc1ccc(-c2ccnc(C(F)(F)F)c2)c(-c2nnn[nH]2)c1)C1(c2ccc(OC(F)(F)F)cc2F)CC1 [Example 295, 1-[2-fluoro-4-(trifluoromethoxy)phenyl]-N-{3-(1H-tetrazol-5-yl)-4-[2-(trifluoromethyl)pyridin-4-yl]phenyl}cyclopro-panecarboxa-mide] | 7.47 | 7.62 | – | – | – |
| Cc1cncc(-c2ccc(NC(=O)C3(c4cccc(Cl)c4)CC3)cc2-c2nnn[nH]2)c1 [Example 326, 1-(3-chlorophenyl)-N-[4-(5-methylpyridin-3-yl)-3-(1H-tetrazol-5-yl)phenyl]cyclopro-panecarboxa-mide] | 7.34 | 7.70 | 7.65 | – | – |
| COc1cnccc1-c1ccc(NC(=O)C2(c3cccc(Cl)c3)CC2)cc1-c1nnn[nH]1 [Example 327, 1-(3-chlorophenyl)-N-[4-(3-methoxypyridin-4-yl)-3-(1H-tetrazol-5-yl)phenyl]cyclopro-panecarboxa-mide] | 6.79 | 7.15 | 7.15 | – | – |
| CCOc1ncc(-c2ccc(NC(=O)C3(c4cccc(Cl)c4)CC3)cc2-c2nnn[nH]2)cc1Cl [Example 328, N-[4-(5-chloro-6-ethoxypyridin-3-yl)-3-(1H-tetrazol-5-yl)phenyl]-1-(3-chlorophenyl)cy-clopropanecarbox-amide] | 6.90 | 7.87 | 7.11 | – | – |
| O=C(Nc1ccc(-c2ccc(N3CCOCC3)nc2)c(-c2nnn[nH]2)c1)C1(c2cccc(Cl)c2)CC1 [Example 329, 1-(3-chlorophenyl)-N-{4-[6-(morpholin-4-yl)pyridin-3-yl]-3-(1H-tetrazol-5-yl)phenyl}cyclopro-panecarboxa-mide] | 7.15 | 7.07 | 7.04 | – | – |
| CCc1ccc(-c2ccc(NC(=O)C3(c4cccc(Cl)c4)CC3)cc2-c2nnn[nH]2)cn1 [Example 338, 1-(3-chlorophenyl)-N-[4-(6-ethylpyridin-3-yl)-3-(1H-tetrazol-5-yl)phenyl]cyclopro-panecarboxa-mide] | 8.22 | 8.05 | 7.69 | – | – |
| CC(C)(O)c1ccc(-c2ccc(NC(=O)C3(c4cccc(Cl)c4)CC3)cc2-c2nnn[nH]2)cn1 [Example 340, 1-(3-chlorophenyl)-N-{4-[6-(2-hydroxypropan-2-yl)pyridin-3-yl]-3-(1H-tetrazol-5-yl)phenyl}cyclopro-panecarboxa-mide] | 6.97 | 6.58 | 6.79 | – | – |
| CC(C)(O)Cc1ccc(-c2ccc(NC(=O)C3(c4cccc(Cl)c4)CC3)cc2-c2nnn[nH]2)cn1 [Example 343, 1-(3-Chlorophenyl)-N-{4-[6-(2-hydroxy-2-methylpropyl)pyridin-3-yl]-3-(1H-tetrazol-5-yl)phenyl}cyctopropanecarboxamide] | 6.96 | 6.59 | 6.95 | – | – |
| CC(C)(C)c1ccn(-c2ccc(NC(=O)C3(c4ccc(C(F)(F)F)cc4F)CC3)cc2-c2nnn[nH]2)n1 [Example 380, N-[4-(3-tert-Butyl-1H-pyrazol-1-yl)-3-(1H-tetrazol-5-yl)phenyl]-1-[2-fluoro-4-(trifluoromethyl)phenyl]cyclopro-panecarboxamide] | – | 7.51 | – | 6.46 | < 5.00 |
| N-[4-(6- ethoxypyridin-3- yl)-3-(1H- tetrazol-5- yl)phenyl]-1-(4- ethylphenyl) cyclopropane- carboxamide [Example 69] | 7.79 | 8.17 | 7.51 | – | – |
